# Patent US6887903B1, “N-(2-aryl-propionyl)-sulfonamides and pharmaceutical preparations containing them” (Dompe S.p.A., priority 1998, dated 2005)
# Assays:
# CO enzymes = conditions: ketoprofen enantiomers; cited from earlier work
# [1] = test system: human PMNs leukocytes stimulated by IL-8; assay: Cytosol [Ca2+]i variations in human PMN stimulated by IL-8 (Fura-2AM); type: cell-based; conditions: for [Ca2+]i response, % compared with basal values (basal normalized at 100): compound 10^−6 M + IL-8 50 ng/mL, mean of responsive cells with SEM, PMN from 3 donors; for percentage of non-responsive cells: pretreated with compound 10^−6 M, IL-8 50 ng/mL (30% with only IL-8)
# Description: (§1) The compounds of the invention were studied using PMN cells obtained by sedimentation of heparinized blood from healthy volunteers on dextran; the mononuclear cells were removed by means of Ficoll/Hypaque whereas erythrocytes were removed by treatment with hypotonic solutions. Cell viability of PMN leukocytes was calculated by exclusion with Turk and Trypan Blue, while the percentage of PM-nucleates on the cytocentrifugate was evaluated upon staining with Diff Quinck (W. J. Ming et al., J. Immunol., 138, 1469, 1987).
# (§2) In each of the “in vitro” tests subsequently described, PMN were incubated with the compounds of the invention for 10 minutes at a temperature of 37° C.
# (§3) In the chemotaxis tests and in those for evaluating cytosol levels of the Ca^2+ ion, human recombinant IL-8 (Pepro Tech.) was used as stimulating agent: the freeze-dried protein was dissolved in HBSS (Hank's balanced salts solution) at a concentration of 100 ng/mL and was used after dilution in HBSS to concentrations of 10 ng/mL in the chemotaxis tests and of 25-50 ng/mL in the evaluation of [Ca^2+]i cell modifications.
# Cytosol variations of [Ca^2+]i were determined according to the experimental model described by C. Bizzarri et al., (Blood, 86, 2388, 1995), using slides containing adhered PMN added with 1 μM Fura-2AM to evaluate [Ca^2+]i variations in actual time. In their turn, PMN cytocentrifugates were resuspended in RPMI 1640 medium with 5% FCS (bovine foetal serum) at a concentration of 3×10^6/mL and then inoculated (plated) on round glass slides of 25 mm diameter which were placed in incubator for 30 min. at 37° C. After three subsequent washings with BSS (Balanced salts solution) to remove the non adherent cells, all of the adherent cells were further incubated for a maximum of 4 hours before adding Fura-2AM.
# By way of example, results obtained with R(−)-N-2-[3-(benzoylphenyl)-propionyl])-methanesulfonamide (DF 1661) and R(−)-N-2-[(4-Isobutylphenyl)-propionyl]-methanesulfonamide (DF 1681) using human PMNs leukocytes from 3 different donors are reported in the subsequent table. These leukocytes were considered responsive to IL-8 (50 ng/mL) when [Ca^2+]i was higher than the basal value by 34% (normalized at 100) in response to the stimulus.
# The responses, expressed as % compared with [Ca^2+]i basal values, are the mean of the values of the responsive cells and include standard error (SEM); n is the number of replications. During these tests, the percentage of non-responsive cells was different in the different groups: 30% in the group treated with only IL-8, 40% in the group pretreated with DF 1661 and 70% in the group pretreated with DF 1681.
# [2] = test system: PMN human leukocytes stimulated by interleukin 8; assay: Chemotaxis of human PMN induced by IL-8; type: cell-based; conditions: IL-8 10 ng/mL; concentration range from 10^−6 to 10^−11 M; mean ±S.D. of 3 independent tests
# Description: as §1, §2, §3
# In the chemotaxis test (according to W. Falket et al., J. Immunol. Methods, 33, 239, 1980) PVP filters of […] porosity and a plexigas microcamera suitable to perform 48 replications were used. […]
# [3] = test system: PMN human leukocytes stimulated by C5a; assay: Chemotaxis of human PMN induced by C5a; type: cell-based; conditions: C5a 10^−9 M; DF 1681 from 10^−6 to 10^−7 M
# Description: as §1, §2
# (§4) In the chemotaxis test (according to W. Falket et al., J. Immunol. Methods, 33, 239, 1980) PVP filters of […] porosity and a plexigas microcamera suitable to perform 48 replications were used. The microcamera consists of a plexiglas piece containing 48 wells, each of 25 μL capacity, and is equipped with a cover, in its turn containing 48 pores arranged so that, once the lid has been placed on and screwed to the underneath part, 50 μL capacity top compartments are formed in the microcamera.
# (§5) Equal concentrations of the tested compounds were placed in the top wells containing the PMN suspension and in the lower ones, which contained the carrier optionally added with IL-8 (or a different stimulating agent).
# [4] = test system: PMN human leukocytes stimulated by f-MLP; assay: Chemotaxis of human PMN induced by f-MLP; type: cell-based; conditions: f-MLP 10^−8 M; DF 1681 from 10^−6 to 10^−7 M
# Description: as §1, §2, §4, §5
# [5] = test system: human neutrophils stimulated by IL-8; conditions: IL-8 1 nM; read-out: IC50 of blockage of chemotaxis stimulated by IL-8; cited from earlier work
# [6] = test system: human neutrophils stimulated by complement C5a; conditions: concentration range of 50 to 330 nM; cited from earlier work
# [7] = test system: human neutrophils stimulated by GROα; conditions: GROα 10 nM; read-out: IC50 of blockage of chemotaxis stimulated by GROα; cited from earlier work
compound,measurement,setting,value
"C[C@@H](C(=O)O)c1cccc(C(=O)c2ccccc2)c1 (single isomer, unassigned) [enantiomer (R)]",lower potency of enantiomer (R) compared with enantiomer (S) as CO enzymes inhibitor,CO enzymes,10-100 times
C[C@@H](C(=O)NS(C)(=O)=O)c1cccc(C(=O)c2ccccc2)c1 [DF 1661],"[Ca2+]i response, % compared with basal values (basal normalized at 100)",[1],184 + 16 (n = 10) %
same,percentage of non-responsive cells,[1],40%
"CC(C)Cc1ccc([C@@H](C)C(=O)NS(C)(=O)=O)cc1 [DF 1681, R(−)-N-[2-(4-Isobutylphenyl)propionyl]-methanesulfonamide]","inhibition of chemotaxis induced by IL-8 (number of migrated PMN, FIG. 1)",[2],dose-dependently inhibits chemotaxis induced by IL-8
same,"[Ca2+]i response, % compared with basal values (basal normalized at 100)",[1],159 + 16 (n = 10) %
same,percentage of non-responsive cells,[1],70%
same,inhibition of chemotaxis induced by C5a (FIG. 2),[3],selectivity inhibit IL-8-induced chemotaxis instead of chemotaxis induced by C5a
same,inhibition of chemotaxis induced by f-MLP (FIG. 2),[4],selectivity inhibit IL-8-induced chemotaxis instead of chemotaxis induced by C5a (10^−9 M) or by f-MLP
O=C(Nc1ccc([N+](=O)[O-])cc1O)Nc1ccccc1Br [N-(2-hydroxy-4-nitrophenyl)-N′-(2-bromo-phenyl)urea],IC50,[5],20 to 60 nM
same,blockage of C5a-stimulated chemotaxis,[6],but not that of complement C5a-stimulated chemotaxis
same,IC50,[7],20 to 60 nM
